Blank lines part the entries; values can stand above or below the compound they belong to.
How the values were obtained:
[1] = biological target: T1, Dual specificity protein kinase CLK1 (Homo sapiens, UniProt P49759); experiment: Inhibition of human recombinant GST-tagged Clk1 (129 to 484 residues) expressed in Escherichia coli expression system at 100 nM using GRSRSRSRSRSRSRS peptide as substrate incubated for 15 mins in presence of ATP by phosphoimager analysis relative to control
Target sequence in this assay (P49759 whole entry, looked up, the tested form may be a part): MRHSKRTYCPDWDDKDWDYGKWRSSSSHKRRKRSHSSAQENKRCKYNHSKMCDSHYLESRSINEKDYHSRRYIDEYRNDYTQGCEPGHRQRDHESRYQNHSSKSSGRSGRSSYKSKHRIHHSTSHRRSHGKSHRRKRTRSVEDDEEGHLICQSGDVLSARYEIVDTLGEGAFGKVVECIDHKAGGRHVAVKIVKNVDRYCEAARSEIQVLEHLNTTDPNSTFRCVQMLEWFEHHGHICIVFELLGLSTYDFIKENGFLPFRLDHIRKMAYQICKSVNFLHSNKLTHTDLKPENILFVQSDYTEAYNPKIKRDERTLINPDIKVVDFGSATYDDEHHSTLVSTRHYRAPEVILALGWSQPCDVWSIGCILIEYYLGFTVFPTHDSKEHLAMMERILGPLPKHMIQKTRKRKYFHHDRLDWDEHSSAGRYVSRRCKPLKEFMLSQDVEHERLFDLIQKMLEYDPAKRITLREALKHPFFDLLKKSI

Homo sapiens [2] = organism: Homo sapiens; experiment: Selectivity ratio of IC50 for human Clk2 to IC50 for human Clk1 by ADP-Glo assay
[3] = biological target: T1, Dual specificity protein kinase CLK1; experiment: Inhibition of human recombinant GST-tagged Clk1 (129 to 484 residues) expressed in Escherichia coli expression system using GRSRSRSRSRSRSRS peptide as substrate incubated for 15 mins in presence of ATP by phosphoimager analysis
Target sequence in this assay (P49759 whole entry, the tested form may be a part): as the sequence (P49759 whole entry, looked up, the tested form may be a part) above

T-24 = experiment: Antiproliferative activity against human T24 cells assessed as cell growth inhibition measured after 3 days by MTT assay; assay type: functional; details: T-24, 72 h, time 3 day
Homo sapiens [4] = organism: Homo sapiens; experiment: Selectivity ratio of IC50 for human Clk2 to IC50 for human Clk1
Homo sapiens [5] = organism: Homo sapiens; experiment: Selectivity ratio of IC50 for human DYRK1A to IC50 for human Clk1
[6] = biological target: T2, Dual specificity protein kinase CLK2 (Homo sapiens, UniProt P49760); experiment: Inhibition of human recombinant GST-tagged Clk2 expressed in Baculovirus expression system using GRSRSRSRSRSRSRS peptide as substrate incubated for 15 mins in presence of ATP by phosphoimager analysis
Target sequence in this assay (P49760 whole entry): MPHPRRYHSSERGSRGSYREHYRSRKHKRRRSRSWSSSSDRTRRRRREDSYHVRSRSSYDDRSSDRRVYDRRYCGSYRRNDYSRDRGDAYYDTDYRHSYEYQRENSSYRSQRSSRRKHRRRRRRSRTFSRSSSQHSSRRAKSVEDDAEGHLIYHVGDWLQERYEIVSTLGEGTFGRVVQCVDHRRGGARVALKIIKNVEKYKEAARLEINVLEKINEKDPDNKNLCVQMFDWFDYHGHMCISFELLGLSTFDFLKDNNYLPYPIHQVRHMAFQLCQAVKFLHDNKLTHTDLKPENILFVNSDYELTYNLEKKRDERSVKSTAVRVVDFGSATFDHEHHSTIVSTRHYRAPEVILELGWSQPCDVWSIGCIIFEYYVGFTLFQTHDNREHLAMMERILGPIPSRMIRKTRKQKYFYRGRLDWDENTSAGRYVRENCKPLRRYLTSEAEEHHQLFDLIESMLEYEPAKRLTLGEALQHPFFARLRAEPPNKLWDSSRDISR

[7] = biological target: T2, Dual specificity protein kinase CLK2; experiment: Inhibition of human recombinant GST-tagged Clk2 expressed in Baculovirus expression system at 0.25 uM using GRSRSRSRSRSRSRS peptide as substrate incubated for 15 mins in presence of ATP by phosphoimager analysis relative to control
Target sequence in this assay (P49760 whole entry, looked up): as the sequence (P49760 whole entry) above

Homo sapiens [8] = organism: Homo sapiens; experiment: Selectivity index, ratio of IC50 for human Clk2 to IC50 for human Clk1 by phosphoimager analysis
[9] = biological target: Cyclin-dependent kinase 5/CDK5 activator 1 (Homo sapiens) (UniProt Q00535+Q15078); experiment: Inhibition of human recombinant GST tagged/His-tagged full length CDK5/p25 expressed in Baculovirus expression system at 1 uM relative to control
[10] = biological target: Casein kinase I isoform delta (Homo sapiens) (UniProt P48730); experiment: Inhibition of human recombinant GST tagged full length CSNK1D expressed in Baculovirus expression system at 1 uM relative to control
Chain of Casein kinase I isoform delta (Homo sapiens) (P48730 whole entry, looked up, canonical isoform): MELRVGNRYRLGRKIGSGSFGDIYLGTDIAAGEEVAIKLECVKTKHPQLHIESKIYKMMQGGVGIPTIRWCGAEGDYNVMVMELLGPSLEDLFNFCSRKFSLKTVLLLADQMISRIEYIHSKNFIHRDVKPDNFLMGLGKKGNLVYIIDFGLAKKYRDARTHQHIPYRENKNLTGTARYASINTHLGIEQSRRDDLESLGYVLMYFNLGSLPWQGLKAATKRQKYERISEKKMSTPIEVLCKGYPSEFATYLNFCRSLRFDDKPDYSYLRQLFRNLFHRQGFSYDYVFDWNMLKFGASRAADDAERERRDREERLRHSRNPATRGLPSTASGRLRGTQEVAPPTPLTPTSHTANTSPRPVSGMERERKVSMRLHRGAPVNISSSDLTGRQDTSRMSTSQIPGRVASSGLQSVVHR

Homo sapiens [11] = organism: Homo sapiens; experiment: Inhibition of CK2 (unknown origin) at 1 uM relative to control
[12] = biological target: Dual specificity protein kinase CLK3 (Homo sapiens) (UniProt P49761); experiment: Inhibition of human recombinant GST-tagged full length CLK3 expressed in Baculovirus expression system at 1 uM relative to control
[13] = biological target: T3, Dual specificity protein kinase CLK4 (Homo sapiens, UniProt Q9HAZ1); experiment: Inhibition of human recombinant GST tagged full length CLK4 expressed in Baculovirus expression system at 1 uM relative to control
Target sequence in this assay (Q9HAZ1 whole entry, looked up): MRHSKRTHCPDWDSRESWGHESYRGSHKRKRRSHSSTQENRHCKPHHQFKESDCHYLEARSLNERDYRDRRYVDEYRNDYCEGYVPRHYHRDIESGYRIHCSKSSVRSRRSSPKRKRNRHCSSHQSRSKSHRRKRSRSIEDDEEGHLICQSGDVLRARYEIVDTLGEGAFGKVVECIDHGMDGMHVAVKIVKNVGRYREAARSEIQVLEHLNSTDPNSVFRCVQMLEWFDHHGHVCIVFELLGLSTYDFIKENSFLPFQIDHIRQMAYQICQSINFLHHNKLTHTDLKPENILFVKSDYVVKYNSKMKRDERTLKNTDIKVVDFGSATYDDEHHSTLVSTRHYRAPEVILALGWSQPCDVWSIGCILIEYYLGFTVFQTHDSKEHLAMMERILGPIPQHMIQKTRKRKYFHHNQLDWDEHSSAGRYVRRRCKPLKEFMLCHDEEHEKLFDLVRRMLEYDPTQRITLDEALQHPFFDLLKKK

[14] = biological target: Dual specificity tyrosine-phosphorylation-regulated kinase 1A (Homo sapiens) (UniProt Q13627); experiment: Inhibition of human recombinant GST tagged full length DYRK1A expressed in Baculovirus expression system at 1 uM relative to control
[15] = biological target: T4, Dual specificity tyrosine-phosphorylation-regulated kinase 2 (Homo sapiens) (UniProt Q92630); experiment: Inhibition of human recombinant GST tagged full length DYRK2 expressed in Escherichia coli expression system at 1 uM relative to control
T4 sequence (whole entry): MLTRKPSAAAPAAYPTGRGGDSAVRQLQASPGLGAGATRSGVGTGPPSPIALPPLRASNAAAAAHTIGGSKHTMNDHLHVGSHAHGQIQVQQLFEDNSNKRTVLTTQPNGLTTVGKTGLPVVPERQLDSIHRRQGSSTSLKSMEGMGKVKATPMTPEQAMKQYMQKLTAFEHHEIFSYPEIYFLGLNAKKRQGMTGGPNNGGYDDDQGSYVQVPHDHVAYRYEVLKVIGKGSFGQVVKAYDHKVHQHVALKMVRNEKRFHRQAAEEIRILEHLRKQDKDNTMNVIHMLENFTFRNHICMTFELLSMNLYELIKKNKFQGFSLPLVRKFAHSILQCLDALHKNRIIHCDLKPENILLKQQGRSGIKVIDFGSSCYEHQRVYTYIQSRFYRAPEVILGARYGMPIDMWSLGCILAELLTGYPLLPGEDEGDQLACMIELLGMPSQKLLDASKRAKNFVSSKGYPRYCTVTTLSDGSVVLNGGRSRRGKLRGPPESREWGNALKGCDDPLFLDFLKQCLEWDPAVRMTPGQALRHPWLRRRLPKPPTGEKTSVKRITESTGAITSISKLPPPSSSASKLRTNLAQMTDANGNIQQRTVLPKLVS

[16] = biological target: T5, Serine/threonine-protein kinase haspin (Homo sapiens) (UniProt Q8TF76); experiment: Inhibition of human recombinant GST tagged full length Haspin catalytic domain expressed in Baculovirus expression system at 1 uM relative to control
T5 sequence (whole entry): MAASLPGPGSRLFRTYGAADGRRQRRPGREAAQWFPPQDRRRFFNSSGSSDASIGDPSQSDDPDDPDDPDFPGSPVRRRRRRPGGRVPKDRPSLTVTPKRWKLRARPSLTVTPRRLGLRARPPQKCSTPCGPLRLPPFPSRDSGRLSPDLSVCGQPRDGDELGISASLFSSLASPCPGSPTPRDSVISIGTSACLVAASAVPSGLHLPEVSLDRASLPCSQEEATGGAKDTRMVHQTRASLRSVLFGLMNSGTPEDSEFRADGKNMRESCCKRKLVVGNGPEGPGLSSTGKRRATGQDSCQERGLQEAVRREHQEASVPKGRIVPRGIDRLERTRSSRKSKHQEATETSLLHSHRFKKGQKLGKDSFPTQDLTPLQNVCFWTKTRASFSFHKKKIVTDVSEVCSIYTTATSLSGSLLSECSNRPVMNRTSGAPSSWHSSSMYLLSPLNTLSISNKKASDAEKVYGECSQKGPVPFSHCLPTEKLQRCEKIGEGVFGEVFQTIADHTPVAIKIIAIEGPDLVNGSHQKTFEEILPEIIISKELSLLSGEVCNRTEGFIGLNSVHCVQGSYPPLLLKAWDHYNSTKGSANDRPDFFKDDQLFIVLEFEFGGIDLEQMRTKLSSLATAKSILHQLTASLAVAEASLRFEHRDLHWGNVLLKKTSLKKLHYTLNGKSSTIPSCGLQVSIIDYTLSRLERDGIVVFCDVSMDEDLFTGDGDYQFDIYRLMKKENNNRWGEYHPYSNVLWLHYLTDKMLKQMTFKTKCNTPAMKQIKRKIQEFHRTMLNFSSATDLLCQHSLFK

[17] = biological target: Homeodomain-interacting protein kinase 1 (Homo sapiens) (UniProt Q86Z02); experiment: Inhibition of human recombinant GST tagged HIPK1 expressed in Baculovirus expression system at 1 uM relative to control
[18] = biological target: Serine/threonine-protein kinase pim-1 (Homo sapiens) (UniProt P11309); experiment: Inhibition of human recombinant His tagged full length Pim1 expressed in Baculovirus expression system at 1 uM relative to control
[19] = biological target: SRSF protein kinase 1 (Homo sapiens) (UniProt Q96SB4); experiment: Inhibition of human recombinant His tagged full length SRPK1 expressed in Baculovirus expression system at 1 uM relative to control
Chain of SRSF protein kinase 1 (Homo sapiens) (Q96SB4 whole entry): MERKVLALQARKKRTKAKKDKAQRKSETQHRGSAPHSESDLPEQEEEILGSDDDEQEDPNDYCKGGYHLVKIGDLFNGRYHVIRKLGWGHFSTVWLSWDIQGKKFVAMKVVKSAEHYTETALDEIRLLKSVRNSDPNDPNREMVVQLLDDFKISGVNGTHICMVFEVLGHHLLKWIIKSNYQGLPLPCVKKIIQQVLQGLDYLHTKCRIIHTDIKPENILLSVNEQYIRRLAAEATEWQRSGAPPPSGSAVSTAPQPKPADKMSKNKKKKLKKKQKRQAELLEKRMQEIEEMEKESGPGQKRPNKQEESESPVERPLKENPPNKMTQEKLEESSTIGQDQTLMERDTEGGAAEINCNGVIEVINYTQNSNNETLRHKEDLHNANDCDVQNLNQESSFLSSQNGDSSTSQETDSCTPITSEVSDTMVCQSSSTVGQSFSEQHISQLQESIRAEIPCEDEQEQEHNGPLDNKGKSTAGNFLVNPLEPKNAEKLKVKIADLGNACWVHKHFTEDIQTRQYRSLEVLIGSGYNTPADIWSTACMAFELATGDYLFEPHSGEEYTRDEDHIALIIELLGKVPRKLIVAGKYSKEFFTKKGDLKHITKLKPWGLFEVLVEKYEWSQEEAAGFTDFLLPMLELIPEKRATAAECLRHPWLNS

[20] = biological target: BDNF/NT-3 growth factors receptor (Homo sapiens) (UniProt Q16620); experiment: Inhibition of human recombinant His tagged full length TRKB expressed in Baculovirus expression system at 1 uM relative to control
Chain of BDNF/NT-3 growth factors receptor (Homo sapiens) (Q16620 32-822 limits assumed): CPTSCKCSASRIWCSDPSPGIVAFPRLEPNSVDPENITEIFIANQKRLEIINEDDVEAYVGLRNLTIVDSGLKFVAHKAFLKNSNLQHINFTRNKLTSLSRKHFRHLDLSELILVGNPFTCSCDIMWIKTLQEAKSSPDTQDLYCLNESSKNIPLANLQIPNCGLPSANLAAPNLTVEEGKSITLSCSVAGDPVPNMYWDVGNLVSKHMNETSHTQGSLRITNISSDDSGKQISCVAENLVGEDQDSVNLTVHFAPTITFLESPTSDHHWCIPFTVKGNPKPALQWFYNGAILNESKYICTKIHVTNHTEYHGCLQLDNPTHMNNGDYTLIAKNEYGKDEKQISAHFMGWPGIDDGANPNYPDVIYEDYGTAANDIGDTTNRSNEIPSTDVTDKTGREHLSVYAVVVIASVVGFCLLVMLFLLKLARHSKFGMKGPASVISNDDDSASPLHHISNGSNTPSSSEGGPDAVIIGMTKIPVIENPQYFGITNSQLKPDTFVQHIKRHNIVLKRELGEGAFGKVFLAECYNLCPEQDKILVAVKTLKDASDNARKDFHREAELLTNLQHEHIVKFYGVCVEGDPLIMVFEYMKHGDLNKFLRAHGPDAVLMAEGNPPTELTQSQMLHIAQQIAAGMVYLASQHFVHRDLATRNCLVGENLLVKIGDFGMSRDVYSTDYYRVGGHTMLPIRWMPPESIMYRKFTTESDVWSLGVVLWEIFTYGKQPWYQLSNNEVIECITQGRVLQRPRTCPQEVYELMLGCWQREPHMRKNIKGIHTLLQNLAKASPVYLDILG

[21] = biological target: T3, Dual specificity protein kinase CLK4; experiment: Inhibition of human recombinant GST tagged full length CLK4 expressed in Baculovirus expression system at 1 uM
Target sequence in this assay (Q9HAZ1 whole entry): as the sequence (Q9HAZ1 whole entry, looked up) above

Structure (SMILES): COc1ccc2sc(C(=O)NC(=O)c3ccc(C)cc3OC)cc2c1
inhibition [1]: 50.9%

Structure (SMILES): COc1ccc2sc(C(=O)NC(=O)c3cc(Cl)cnc3OC)cc2c1
inhibition [1]: 44.9%

Structure (SMILES): COc1ccc2sc(C(=O)NC(=O)c3cc(C)cc(F)c3)cc2c1
inhibition [1]: 51.8%

Structure (SMILES): COc1ccc2sc(C(=O)NC(=O)c3cccc4c3OC(F)(F)O4)cc2c1
inhibition [1]: 43.1%

Structure (SMILES): COc1ccc(F)c(C(=O)NC(=O)c2cc3cc(OC)ccc3s2)c1
inhibition [1]: 7.8%

Structure (SMILES): CC(C)(C)c1ccc(C(=O)Nc2cn3cc(-c4cn[nH]c4)ccc3n2)cn1
Ratio IC50 (Homo sapiens [2]): 2.2

Structure (SMILES): COc1ccc2sc(C(=O)NC(=O)c3cc(C)on3)cc2c1
inhibition [1]: 7.3%

Structure (SMILES): COc1ccc2sc(C(=O)N(C)Cc3cc(F)cc(F)c3)cc2c1
Ratio IC50 (Homo sapiens [4]): 9.8
Ratio IC50 (Homo sapiens [5]): 28

Structure (SMILES): COc1ccc2sc(C(=O)NC(=O)c3cccc(OC)n3)cc2c1
inhibition [1]: 42.3%

Further lines, with some results ahead:

inhibition [1]: 27.7%
Structure (SMILES): COc1ccc2sc(C(=O)NC(=O)c3cccc(OC)c3OC)cc2c1

inhibition [1]: 63.3%
IC50 [3]: 79.4 nM
Structure (SMILES): CCOc1ccccc1C(=O)NC(=O)c1cc2cc(OC)ccc2s1
GI50 (T-24): < 100 nM

inhibition [1]: 65.6%
IC50 [3]: 70 nM
Structure (SMILES): COc1ccc2sc(C(=O)NC(=O)c3cc(F)ccc3F)cc2c1

inhibition [1]: 36.5%
Structure (SMILES): COc1cccc(C(=O)NC(=O)c2cc3cc(OC)ccc3s2)c1

inhibition [1]: 49.5%
Structure (SMILES): COc1ccc2sc(C(=O)NC(=O)c3ccc(Cl)cc3OC)cc2c1

inhibition [1]: 35.7%
Structure (SMILES): COc1ccc2sc(C(=O)NC(=O)c3ccc(F)cc3)cc2c1

inhibition [1]: 67.1%
IC50 [3]: 20.9 nM
IC50 [6]: 250 nM
inhibition [7]: 53.8%
Ratio IC50 (Homo sapiens [8]): 12
Structure (SMILES): COc1ccc2sc(C(=O)NC(=O)c3cccc(F)n3)cc2c1
GI50 (T-24): > 15000 nM

inhibition [1]: 87.1%
IC50 [3]: 9.7 nM
IC50 [6]: 486 nM
inhibition [7]: 19.9%
Ratio IC50 (Homo sapiens [8]): 50
inhibition [9]: 3%
inhibition [10]: 7%
inhibition (Homo sapiens [11]): 4%
inhibition [12]: 57%
inhibition [13]: 45%
inhibition [14]: 45%
inhibition [15]: 14%
inhibition [16]: 24%
inhibition [17]: 1%
inhibition [18]: 31%
inhibition [19]: 8%
inhibition [20]: 3%
IC50 [21]: 6.6 nM
Structure (SMILES): COc1ccc2sc(C(=O)NC(=O)c3cc(Cl)ccc3OC)cc2c1
GI50 (T-24): 1100 nM

inhibition [1]: 61.4%
IC50 [3]: 92 nM
Structure (SMILES): COc1ccc2sc(C(=O)NC(=O)c3ccccc3Cl)cc2c1

inhibition [1]: 38.5%
Structure (SMILES): COc1ccc2sc(C(=O)NC(=O)c3cccc(F)c3)cc2c1

inhibition [1]: 61%
IC50 [3]: 75 nM
IC50 [6]: > 250 nM
inhibition [7]: 3.4%
Ratio IC50 (Homo sapiens [8]): > 3.3
Structure (SMILES): COc1ccc2sc(C(=O)NC(=O)c3ccc(Br)cc3OC)cc2c1

inhibition [1]: 86.6%
IC50 [3]: 34.6 nM
Structure (SMILES): COc1ccc2sc(C(=O)NC(=O)c3ccccc3OC)cc2c1
